Results: patent US20170298051A1, “ACTIVATOR OF ADIPONECTIN RECEPTOR” (THE UNIVERSITY OF TOKYO, priority 2013, published 2017)

Columns and labels:
[1] = test system: AdipoR1-AMPK-PGC-1α pathways in skeletal muscle; experiment: Skeletal muscle: gene expression, mitochondrial DNA content, TG content, TBARS in mice fed a HF diet; assay type: in vivo
Experimental: Mitochondrial content assays were carried out as described previously^a,b, with slight modifications. For quantification of mitochondrial content, we used mtDNAas previously described^c.
Real-time PCR was carried out according to the method described previously^a,b,c. Total RNA was prepared from cells or tissues with Trizol (Invitrogen) according to the manufacturer's instructions. We used a real-time PCR method to quantify the mRNAs^19, with slight modifications.
Skeletal muscle homogenates were extracted, and tissue triglyceride content was determined as described previously^a-c, with some modifications. To investigate whether oxidative stress was increased, we measured lipid peroxidation, a marker of oxidative injury, as represented by plasma thiobarbituric acid reactive substance (TBARS) as described previously^4. Briefly, tissue samples were homogenized in a buffer solution containing 50 mM Tris-HCl (pH 7.4) and 1.15% KCl, and then centrifuged. The supernatant was used for the assay. The levels of lipid peroxidation in tissue homogenate and plasma were measured in terms of the amount of TBARS using the LPO test (Wako Pure Chemical Industries).

[2] = Measurement of plasma concentrations of AdipoRon; assay type: in vivo, C57BL/6 mice; settings: C57BL/6, mouse, C57B6 WT mice, oral 50 mg/kg, read-out: maximal concentration (Cmax) in plasma
Experimental: We measured the plasma concentrations of AdipoRon by HPLC and TSQ Quantum Ultra (ThermoFisher) in C57BL/6 mice orally administered with 50 mg of AdipoRon per kg bodyweight. For quantitative analyses, 20 μl of plasma was mixed with acetonitrile. The mixture was mixed vigorously for 30 sec and then centrifuged at 10,000 rpm for 3 min at 4° C. An aliquot of the supernatant was injected into the quantitative LC/MS system. Quantitative analyses were performed using an Accela HPLC system (ThermoFisher). The liquid chromatographic separations were carried out by using syncronis C18, 150×2.1 mm, 3 μm. Column temperature was held at 40° C. The flow rate was 0.2 ml/min. Elution solvent A was 0.1% formic acid in water and solvent B was 0.1% formic acid in methanol. The chromatographic conditions were as follows: 0-5 min 45% A/55% B; 5-6.5 min 5% A/95%B, 6.5-10 min 45%A/55%B. A typical injection volume was 3 μl. Quantitative analyses were performed using a TSQ Quantum Ultra triple-stage quadrupole mass spectrometer. Electro-spray ionization in positive ion mode (ESI+) was used for ionization and selective reaction monitoring (SRM) mode was chosen for detection. The optimized precursor ions pairs were m/z 429.251→91.057 for AdipoRon. […]

db/db mice = experiment: Lifespan of db/db mice on a HF diet; assay type: in vivo; settings: daily dose of 30 mg kg−1 body weight
Experimental: Because the HF diet has been reported to shorten the lifespan, we examined whether orally administered AdipoRon could prolong the shortened lifespan due to a HF diet or not.
That is, the db/db mice were randomly divided into 3 groups: a normal chow group (Normal chow, n=20), high-fat group (High-fat, n=20) and high-fat and additionally AdipoRon group (High-fat+AdipoRon, n=20), which were treated with AdipoRon at a daily dose of 30 mg kg^−1 body weight. The survival rate was recorded daily.

[3] = Adipor1/r2 double-knockout mice

SMILES: O=C(COc1ccc(C(=O)c2ccccc2)cc1)NC1CCN(Cc2ccccc2)CC1 [Compound 73, 2-(4-benzoyl-phenoxy)-N-(1-benzylpiperidin-4-yl)acetamide]
- effects on mitochondrial genes and mitochondrial DNA content in skeletal muscle [1, 3]: totally obliterated
- levels of type I fiber marker Troponin I (slow) (Tnni1) [1, 3]: but not in Adipor1/r2 double-knockout mice
- effect on Sod2 and TBARS ([1]; Adipor1/r2 double-knockout mice fed with a HF diet): such effect was not observed
- levels of type I fiber marker Troponin I (slow) (Tnni1) ([1]; WT mice): increased the levels
- mitochondrial DNA content in skeletal muscle ([1]; WT mice): increased mitochondrial DNA content
- TG content in the skeletal muscle ([1]; WT mice fed with a HF diet): decreased TG content
- expression levels of oxidative stress detoxifying genes such as Sod2 ([1]; skeletal muscle, WT mice): significantly increased expression levels
- genes involved in fatty acid oxidation such as Acadm ([1]; skeletal muscle, WT mice): significantly increased
- oxidative stress markers such as TBARS ([1]; skeletal muscle, WT mice): decreased oxidative stress markers
- Cmax [2]: 11.8 µM
- lifespan (db/db mice): significantly rescued the shortened lifespan
